Data from US8916498B2, “Safening 6-(trisubstituted phenyl)-4-amino-2-pyridinecarboxylate herbicide injury on direct seeded and transplanted paddy rice” (priority 2008, dated 2014).
Read-outs that look alike come from different tables or passages of the source.

How the values were obtained:
CYPDI = assay: Postemergence herbicidal safening in direct seeded rice, visual injury on weed; format: in vivo; details: alone, after 3 weeks
SEBEX = assay: as above; format: in vivo; details: alone, after 3 weeks
ECHCO = assay: as above; format: in vivo; details: alone, after 3 weeks
weed test plant species = assay: Herbicidal safening in transplanted paddy rice, visual injury on weeds; format: in vivo; details: after 3 weeks; for Visual Injury (%) CYPDI Obs: Cyperus difformis; for Visual Injury (%) MOOVA Obs: Monochoria vaginalis; for Visual Injury (%) SCPJU Obs: Scirpus juncoides
Procedure: (§1) Evaluation of Herbicidal Safening in Transplanted Paddy Rice
(§2) The prepared mud was dispensed in 250 mL aliquots into 480 mL non-perforated plastic pots with a surface area of 91.6 cm^2 leaving a headspace of 3 cm in each pot. Rice seeds were planted in Sun Gro MetroMix 306 planting mixture, which typically has a pH of 6.0 to 6.8 and an organic matter content of about 30 percent, in plastic plug trays. Seedlings at the second or third leaf stage of growth were transplanted into 650 mL of mud contained in 960 mL non-perforated plastic pots with a surface area of 91.6 cm^2 four days prior to herbicide application. The paddy was created by filling the 3 cm headspace of the pots with water. […] Nutrients were added as Osmocote (17:6:10, Nitrogen:Phosphorus:Potassium (N:P:K)+minor nutrients) at 2 grams (g) per cup.
(§3) For technical grade compounds and safeners, a weighed amount, determined by the highest rate to be tested, was placed in an individual 120 mL glass vial and was dissolved in 20 mL of acetone to obtain concentrated stock solutions. […] The concentrated stock solutions obtained were diluted with 20 mL of acetone. Applications were made by injecting an appropriate amount of the stock solution into the aqueous layer of the paddy. […] All treated plant material received the same concentration of acetone and crop oil concentrate.

ORYSA (rice) = assay: Postemergence herbicidal safening in direct seeded rice, visual injury; details: for ‘M202’ ORYSA Visual Injury (%) Obs: Safener Alone, 560 g ai/ha; for ‘M202’ ORYSA Visual Injury (%) Obs / Visual Injury (%) ‘Lemont’ ORYSA Obs: after 3 weeks; for Visual Injury (%) ‘Lemont’ ORYSA Obs: alone
Source text: A=observed efficacy of active ingredient A at the same concentration as used in the mixture.
B=observed efficacy of active ingredient B at the same concentration as used in the mixture.

transplanted paddy rice [1] = assay: Herbicidal safening in transplanted paddy rice, visual injury; format: in vivo, Oryza sativa; details: after 3 weeks; for ‘M202’ ORYSA Visual Injury (%) Obs: safener 1120 g ae/ha alone
Procedure: as §1, §2, §3

transplanted paddy rice [2] = assay: Safening activity of herbicide mixtures in transplanted paddy rice; format: in vivo, Oryza sativa
Procedure: as §2, §3
Forms of compound 1 were applied on an acid equivalent basis.

Structure (SMILES): Clc1cc(Cl)nc(-c2ccccc2)n1 [Fenclorim, 4,6-dichloro-2-phenylpyrimidine]
- Visual Injury (%) CYPDI Obs (CYPDI; 35 g ai/ha): 0%
- Visual Injury (%) CYPDI Obs (CYPDI; 70 g ai/ha): 0%
- Visual Injury (%) CYPDI Obs (CYPDI; 140 g ai/ha): 0%
- Visual Injury (%) CYPDI Obs (CYPDI; 280 g ai/ha): 0%
- Visual Injury (%) SEBEX Obs (SEBEX; 35 g ai/ha): 0%
- Visual Injury (%) SEBEX Obs (SEBEX; 70 g ai/ha): 0%
- Visual Injury (%) SEBEX Obs (SEBEX; 140 g ai/ha): 0%
- Visual Injury (%) SEBEX Obs (SEBEX; 280 g ai/ha): 0%
- Visual Injury (%) ECHCO Obs (ECHCO; 35 g ai/ha): 0%
- Visual Injury (%) ECHCO Obs (ECHCO; 70 g ai/ha): 0%
- Visual Injury (%) ECHCO Obs (ECHCO; 140 g ai/ha): 0%
- Visual Injury (%) ECHCO Obs (ECHCO; 280 g ai/ha): 0%
- Visual Injury (%) CYPDI Obs (weed test plant species; safener 70 g ai/ha alone): 0%
- Visual Injury (%) CYPDI Obs (weed test plant species; safener 140 g ai/ha alone): 0%
- Visual Injury (%) CYPDI Obs (weed test plant species; safener 280 g ai/ha alone): 0%
- Visual Injury (%) MOOVA Obs (weed test plant species; safener 70 g ai/ha alone): 0%
- Visual Injury (%) MOOVA Obs (weed test plant species; safener 140 g ai/ha alone): 0%
- Visual Injury (%) MOOVA Obs (weed test plant species; safener 280 g ai/ha alone): 0%
- ‘M202’ ORYSA Visual Injury (%) Obs (ORYSA (rice)): 6.7%
- Visual Injury (%) ‘Lemont’ ORYSA Obs (ORYSA (rice); 35 g ai/ha): 0%
- Visual Injury (%) ‘Lemont’ ORYSA Obs (ORYSA (rice); 70 g ai/ha): 0%
- Visual Injury (%) ‘Lemont’ ORYSA Obs (ORYSA (rice); 140 g ai/ha): 0%
- Visual Injury (%) ‘Lemont’ ORYSA Obs (ORYSA (rice); 280 g ai/ha): 0%

Structure (SMILES): COC(=O)c1c(Cl)nn(C)c1S(=O)(=O)NC(=O)Nc1nc(OC)cc(OC)n1 [Halosulfuron-methyl]
- ORYSA Visual Injury (%) ‘M202’ Obs (direct seeded rice; partner 26 g/ha alone): 0%
- ORYSA Visual Injury (%) ‘Wells’ Obs (direct seeded rice; partner 26 g/ha alone): 10%
- ORYSA Visual Injury (%) ‘M202’ Obs (direct seeded rice; partner 52 g/ha alone): 15%

Structure (SMILES): CCOC(=O)C1=NOC(c2ccccc2)(c2ccccc2)C1 [Isoxadifen-ethyl, ethyl 4,5-dihydro-5,5-diphenyl-3-isoxazole-carboxylate]
- Visual Injury (%) CYPDI Obs (CYPDI; 17.5 g ai/ha): 0%
- Visual Injury (%) CYPDI Obs (CYPDI; 35 g ai/ha): 0%
- Visual Injury (%) CYPDI Obs (CYPDI; 70 g ai/ha): 0%
- Visual Injury (%) CYPDI Obs (CYPDI; 140 g ai/ha): 0%
- Visual Injury (%) ‘M202’ ORYSA Obs (transplanted paddy rice [1]; safener 140 g ai/ha alone): 0%
- Visual Injury (%) ‘M202’ ORYSA Obs (transplanted paddy rice [1]; safener 280 g ai/ha alone): 0%
- Visual Injury (%) ‘M202’ ORYSA Obs (transplanted paddy rice [1]; safener 560 g ai/ha alone): 0%
- ‘M202’ ORYSA Visual Injury (%) Obs (transplanted paddy rice [1]): 0%
- Visual Injury (%) SEBEX Obs (SEBEX; 17.5 g ai/ha): 0%
- Visual Injury (%) SEBEX Obs (SEBEX; 35 g ai/ha): 0%
- Visual Injury (%) SEBEX Obs (SEBEX; 70 g ai/ha): 0%
- Visual Injury (%) SEBEX Obs (SEBEX; 140 g ai/ha): 0%
- Visual Injury (%) ECHCO Obs (ECHCO; 17.5 g ai/ha): 0%
- Visual Injury (%) ECHCO Obs (ECHCO; 35 g ai/ha): 0%
- Visual Injury (%) ECHCO Obs (ECHCO; 70 g ai/ha): 0%
- Visual Injury (%) ECHCO Obs (ECHCO; 140 g ai/ha): 0%
- Visual Injury (%) SCPJU Obs (weed test plant species; safener 140 g ai/ha alone): 0%
- Visual Injury (%) SCPJU Obs (weed test plant species; safener 280 g ai/ha alone): 0%
- Visual Injury (%) SCPJU Obs (weed test plant species; safener 560 g ai/ha alone): 0%
- Visual Injury (%) ECHCG Obs (weed test plant species; safener 140 g ai/ha alone): 0%
- Visual Injury (%) ECHCG Obs (weed test plant species; safener 280 g ai/ha alone): 0%
- Visual Injury (%) ECHCG Obs (weed test plant species; safener 560 g ai/ha alone): 0%
- Visual Injury (%) ‘Lemont’ ORYSA Obs (ORYSA (rice); 17.5 g ai/ha): 0%
- Visual Injury (%) ‘Lemont’ ORYSA Obs (ORYSA (rice); 35 g ai/ha): 5%
- Visual Injury (%) ‘Lemont’ ORYSA Obs (ORYSA (rice); 70 g ai/ha): 10%
- Visual Injury (%) ‘Lemont’ ORYSA Obs (ORYSA (rice); 140 g ai/ha): 5%

Structure (SMILES): CCOC(=O)C1=NN(c2ccc(Cl)cc2Cl)C(C)(C(=O)OCC)C1 (centres unmarked) [Mefenpyr-diethyl]
- ‘M202’ ORYSA Visual Injury (%) Obs (transplanted paddy rice [1]): 0%
- ‘M202’ ORYSA Visual Injury (%) Obs (ORYSA (rice)): 0.0%
- ORYSA Visual Injury (%) ‘Clearfield’ Obs (ORYSA (rice); safener 140 g ai/ha alone): 0%
- ORYSA Visual Injury (%) ‘Cocodrie’ Obs (ORYSA (rice); safener 140 g ai/ha alone): 10%
- ORYSA Visual Injury (%) ‘Lemont’ Obs (ORYSA (rice); safener 140 g ai/ha alone): 0%
- ORYSA Visual Injury (%) ‘M202’ Obs (ORYSA (rice); safener 140 g ai/ha alone): 10%

Structure (SMILES): CNc1cnn(-c2cccc(C(F)(F)F)c2)c(=O)c1Cl [Norflurazon]
- ORYSA Visual Injury (%) ‘M202’ Obs (direct seeded rice; partner 70 g/ha alone): 15%

Structure (SMILES): O=c1c(Cl)c[nH]c(Cl)c1Cl [Pyriclor]
- Visual Injury (%) ‘M202’ ORYSA Obs (transplanted paddy rice [2]; partner 140 g/ha alone): 0%

Structure (SMILES): CS(=O)(=O)c1ccc(C(=O)C2C(=O)CCCC2=O)c(Cl)c1 [Sulcotrione]
- ORYSA Visual Injury (%) ‘Wells’ Obs (direct seeded rice; partner 280 g/ha alone): 99%
- Visual Injury (%) ‘M202’ ORYSA Obs (transplanted paddy rice [2]; partner 280 g/ha alone): 10%
